This is an account of results in patent publication US10647713B2 (Nimbus Lakshmi, Inc., priority 2016, dated 2020).

human TYK2 (JH2domain-pseudokinase), sequence (P29597 556-888): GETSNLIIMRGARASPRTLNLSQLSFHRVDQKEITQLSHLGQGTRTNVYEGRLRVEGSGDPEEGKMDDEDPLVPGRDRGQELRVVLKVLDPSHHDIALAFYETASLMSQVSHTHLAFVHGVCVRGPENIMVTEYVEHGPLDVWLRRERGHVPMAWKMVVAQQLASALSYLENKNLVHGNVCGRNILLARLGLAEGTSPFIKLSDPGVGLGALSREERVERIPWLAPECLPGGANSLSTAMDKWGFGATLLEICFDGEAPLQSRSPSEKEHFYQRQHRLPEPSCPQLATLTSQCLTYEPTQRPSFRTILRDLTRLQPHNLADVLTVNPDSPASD

The test has as its target human TYK2 (JH2domain-pseudokinase) (Homo sapiens (Human), UniProt P29597). Description: TYK2 JH2 Domain Binding Assay (KINOMEscan, DiscoveRx). Particulars: 11-point dilution, duplicate. In short, it runs like this: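 TYK2 JH2 (G556–D888)–NFkB DBD fusion, DNA-tagged, from HEK293 extracts (<0.1 nM) competed against immobilised biotinylated ligand for 1 h at room temperature, 0.9% DMSO. Bead-retained kinase quantified by qPCR; Kd from 11-point 3-fold series (top 30,000 nM, duplicate), Hill fit with slope −1.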
For `CS(=O)(=O)c1cc([C@@H]2CCCO2)ccc1Nc1cc(NC(=O)[C@@H]2CC2(F)F)nc2[nH]c(C(F)F)nc12` [I-316, (S)—N-(2-(difluoromethyl)-7-((2-(methylsulfonyl)-4-((S)-tetrahydrofuran-2-yl)phenyl)amino)-3-imidazo[4,5-b]pyridin-5-yl)-2,2-difluorocyclopropane-1-carboxamide], the Kd fell in the range of 0.5 to 1 nM.
Consider `CS(=O)(=O)c1cc([C@@H]2CCCO2)ccc1Nc1cc(NC(=O)[C@H]2CC2(F)F)nc2[nH]c(C(F)F)nc12` [I-317, (R)—N-(2-(difluoromethyl)-7-((2-(methylsulfonyl)-4-((S)-tetrahydrofuran-2-yl)phenyl)amino)-3-imidazo[4,5-b]pyridin-5-yl)-2,2-difluorocyclopropane-1-carboxamide], for which the Kd is 0.1 to 0.5 nM.
`CS(=O)(=O)c1cc(C2CCC2)ccc1Nc1cc(NC(=O)[C@@H]2CC2(F)F)nc2[nH]c(C(F)F)nc12` [I-318, (S)—N-(7-((4-cyclobutyl-2-(methylsulfonyl)phenyl)amino)-2-(difluoromethyl)-3H-imidazo[4,5-b]pyridin-5-yl)-2,2-difluorocyclopropane-1-carboxamide]: the Kd was more than 10 nM.
In turn, `CS(=O)(=O)c1cc(C2CCC2)ccc1Nc1cc(NC(=O)[C@H]2CC2(F)F)nc2[nH]c(C(F)F)nc12` [I-319, (R)—N-(7-((4-cyclobutyl-2-(methylsulfonyl)phenyl)amino)-2-(difluoromethyl)-3H-imidazo[4,5-b]pyridin-5-yl)-2,2-difluorocyclopropane-1-carboxamide] showed a Kd of more than 10 nM.
The result for `COc1c(Nc2cc(NC(=O)C3CC3)nc3[nH]c(C(F)F)nc23)cccc1-c1nc(C)cs1` [I-320, N-(2-(difluoromethyl)-7-((2-methoxy-3-(4-methylthiazol-2-yl)phenyl)amino)-3H-imidazo[4,5-b]pyridin-5-yl)cyclopropanecarboxamide] reads 1 to 10 nM; that for `COc1c(Nc2cc(NC(=O)C3CC3)nc3[nH]c(C)nc23)cccc1-c1nc(C)cs1` [I-321, N-(7-((2-methoxy-3-(4-methylthiazol-2-yl)phenyl)amino)-2-methyl-3H-imidazo[4,5-b]pyridin-5-yl)cyclopropanecarboxamide], 1 to 10 nM.
Consider `Cn1cnc(-c2ccc(Nc3cc(NC(=O)[C@@H]4C[C@@H]4F)nc4[nH]c(C(F)F)nc34)c(S(C)(=O)=O)c2)c1` [I-322, (1S,2S)—N-(2-(difluoromethyl)-7-((4-(1-methyl-1H-imidazol-4-yl)-2-(methylsulfonyl)phenyl)amino)-3H-imidazo[4,5-b]pyridin-5-yl)-2-fluorocyclopropane-1-carboxamide], for which the Kd is 0.1 to 0.5 nM.
The figure for `Cc1nc2c(Nc3ccc([C@@H]4CCCCO4)cc3S(C)(=O)=O)cc(NC(=O)[C@H]3CC3(F)F)nc2[nH]1` [I-323, 2,2-difluoro-N-(2-methyl-7-((2-(methylsulfonyl)-4-((S)-tetrahydro-2H-pyran-2-yl)phenyl)amino)-3H-imidazo[4,5-b]pyridin-5-yl)cyclopropane-1-carboxamide] is 0.1 to 0.5 nM.
The result for `CS(=O)(=O)c1cc([C@@H]2CCCCO2)ccc1Nc1cc(NC(=O)C2CC2(F)F)nc2[nH]c(C(F)F)nc12` (stereo partly drawn) [I-325, N-(2-(difluoromethyl)-7-((2-(methylsulfonyl)-4-((S)-tetrahydro-2H-pyran-2-yl)phenyl)amino)-3H-imidazo[4,5-b]pyridin-5-yl)-2,2-difluorocyclopropane-1-carboxamide] reads 0.5 to 1 nM; that for `CS(=O)(=O)c1cc([C@H]2CCCCO2)ccc1Nc1cc(NC(=O)[C@H]2CC2(F)F)nc2[nH]c(C(F)F)nc12` [I-326, N-(2-(difluoromethyl)-7-((2-(methylsulfonyl)-4-((R)-tetrahydro-2H-pyran-2-yl)phenyl)amino)-3H-imidazo[4,5-b]pyridin-5-yl)-2,2-difluorocyclopropane-1-carboxamide], 1 to 10 nM; that for `CS(=O)(=O)c1cc([C@@H]2CCCO2)ccc1Nc1cc(NC(=O)C2CC2(F)F)nc2[nH]c(C(F)F)nc12` (stereo partly drawn) [I-327, N-(2-(difluoromethyl)-7-((2-(methylsulfonyl)-4-((S)-tetrahydrofuran-2-yl)phenyl)amino)-3H-imidazo[4,5-b]pyridin-5-yl)-2,2-difluorocyclopropane-1-carboxamide], 0.1 to 0.5 nM.
`CN=S(C)(=O)c1ccccc1Nc1cc(NC(=O)C2CC2)nc2[nH]c(C)nc12` (stereo not shown) [I-328, N-(7-((2-(N,S-dimethylsulfonimidoyl)phenyl)amino)-2-methyl-3H-imidazo[4,5-b]pyridin-5-yl)cyclopropanecarboxamide]: the Kd lay in the range of 0.1 to 0.5 nM.
`CS(=O)(=O)c1cc([C@H]2CCCO2)ccc1Nc1cc(NC(=O)C2CC2(F)F)nc2[nH]c(C(F)F)nc12` (stereo partly drawn) [I-329, N-(2-(difluoromethyl)-7-((2-(methylsulfonyl)-4-((R)-tetrahydrofuran-2-yl)phenyl)amino)-3H-imidazo[4,5-b]pyridin-5-yl)-2,2-difluorocyclopropane-1-carboxamide] came in with a Kd of 1 to 10 nM.
Regarding `Cc1nc2c(Nc3ccc(C4CCC(C)(C)O4)cc3S(C)(=O)=O)cc(NC(=O)C3CC3)nc2[nH]1` (stereo not shown) [I-330, N-(7-((4-(5,5-dimethyltetrahydrofuran-2-yl)-2-(methylsulfonyl)phenyl)amino)-2-methyl-3H-imidazo[4,5-b]pyridin-5-yl)cyclopropanecarboxamide], the Kd fell in the range of 0.1 to 0.5 nM.
Take `Cc1c(-c2ccc(Nc3cc(NC(=O)C4CC4(F)F)nc4[nH]c(C(F)F)nc34)c(S(C)(=O)=O)c2)cnn1C` (stereo not shown) [I-331, N-(2-(difluoromethyl)-7-((4-(1,5-dimethyl-1H-pyrazol-4-yl)-2-(methylsulfonyl)phenyl)amino)-3H-imidazo[4,5-b]pyridin-5-yl)-2,2-difluorocyclopropane-1-carboxamide]: the Kd is 0.1 to 0.5 nM.
The figure for `CC1(C)CCC(c2ccc(Nc3cc(NC(=O)C4CC4)nc4[nH]c(C(F)F)nc34)c(S(C)(=O)=O)c2)O1` (stereo not shown) [I-332] is 0.1 to 0.5 nM.
The figure for `C[S+]([O-])c1ccccc1Nc1cc(NC(=O)C2CC2)nc2[nH]c(C(F)F)nc12` (stereo not shown) [I-333, N-(2-(difluoromethyl)-7-((2-(methylsulfinyl)phenyl)amino)-3H-imidazo[4,5-b]pyridin-5-yl)cyclopropanecarboxamide] is 1 to 10 nM; for `Cc1nc2c(Nc3ccc(C4CCCO4)cc3S(C)(=O)=O)cc(NC(=O)C3CC3)nc2[nH]1` (stereo not shown) [I-334, N-(2-methyl-7-((2-(methylsulfonyl)-4-(tetrahydrofuran-2-yl)phenyl)amino)-3H-imidazo[4,5-b]pyridin-5-yl)cyclopropanecarboxamide] it is less than 0.1 nM; for `CS(=O)(=O)c1cc(C2CCCO2)ccc1Nc1cc(NC(=O)C2CC2)nc2[nH]c(C(F)F)nc12` (stereo not shown) [I-335, N-(2-(difluoromethyl)-7-((2-(methylsulfonyl)-4-(tetrahydrofuran-2-yl)phenyl)amino)-3H-imidazo[4,5-b]pyridin-5-yl)cyclopropanecarboxamide] it is more than 10 nM.
`Cc1nc2c(Nc3ccccc3[S+](C)[O-])cc(NC(=O)C3CC3)nc2[nH]1` (stereo not shown) [I-336, N-(2-methyl-7-((2-(methylsulfinyl)phenyl)amino)-3H-imidazo[4,5-b]pyridin-5-yl)cyclopropanecarboxamide] yielded a Kd of 1 to 10 nM.
Regarding `CS(=O)(=O)c1cc(C2CCOCC2)ccc1Nc1cc(NC(=O)C2CC2(F)F)nc2[nH]c(C(F)F)nc12` (stereo not shown) [I-337, N-(2-(difluoromethyl)-7-((2-(methylsulfonyl)-4-(tetrahydro-2H-pyran-4-yl)phenyl)amino)-3H-imidazo[4,5-b]pyridin-5-yl)-2,2-difluorocyclopropane-1-carboxamide], the Kd was 1 to 10 nM.
Regarding `Cc1cc(-c2ccc(Nc3cc(NC(=O)C4CC4(F)F)nc4[nH]c(C(F)F)nc34)c(S(C)(=O)=O)c2)nn1C` (stereo not shown) [I-338, N-(2-(difluoromethyl)-7-((4-(1,5-dimethyl-1H-pyrazol-3-yl)-2-(methylsulfonyl)phenyl)amino)-3H-imidazo[4,5-b]pyridin-5-yl)-2,2-difluorocyclopropane-1-carboxamide], the Kd is 1 to 10 nM.
The result for `Cc1nc2c(Nc3ccc(C4=NC(C)(C)CO4)cc3S(C)(=O)=O)cc(NC(=O)[C@H]3C[C@H]3F)nc2[nH]1` [I-339, (1R,2R)—N-(7-((4-(4,4-dimethyl-4,5-dihydrooxazol-2-yl)-2-(methylsulfonyl)phenyl)amino)-2-methyl-3H-imidazo[4,5-b]pyridin-5-yl)-2-fluorocyclopropane-1-carboxamide] reads 1 to 10 nM; that for `Cc1nc2c(Nc3ccc([C@H]4CCCO4)cc3S(C)(=O)=O)cc(NC(=O)C3CC3(F)F)nc2[nH]1` (stereo partly drawn) [I-340, 2,2-difluoro-N-(2-methyl-7-((2-(methylsulfonyl)-4-((R)-tetrahydrofuran-2-yl)phenyl)amino)-3H-imidazo[4,5-b]pyridin-5-yl)cyclopropane-1-carboxamide], 0.5 to 1 nM.
The figure for `Cc1cnc(-c2ccc(Nc3cc(Nc4cccc(C#N)n4)nc4[nH]c(C(F)F)nc34)c(S(C)(=O)=O)c2)n1C` [I-341] is 0.1 to 0.5 nM; for `Cc1nc2c(Nc3ccc(-c4c(C)nn(C)c4C)cc3S(C)(=O)=O)cc(Nc3cnc(C)c(C)n3)nc2[nH]1` [I-342] it is 0.1 to 0.5 nM; for `Cc1ncc(Nc2cc(Nc3ccc(-c4c(C)nn(C)c4C)cc3S(C)(=O)=O)c3nc(C(F)F)[nH]c3n2)nc1C` [I-343] it is 0.1 to 0.5 nM.
The figure for `Cc1cc(Nc2cc(Nc3ccc(-c4c(C)nn(C)c4C)cc3S(C)(=O)=O)c3nc(C)[nH]c3n2)nc(C)n1` [I-344] is 0.1 to 0.5 nM; for `Cc1cc(Nc2cc(Nc3ccc(-c4c(C)nn(C)c4C)cc3S(C)(=O)=O)c3nc(C(F)F)[nH]c3n2)nc(C)n1` [I-345] it is 0.1 to 0.5 nM; for `Cc1nc2c(Nc3ccc(C4=NC(C)(C)CS4)cc3S(C)(=O)=O)cc(NC(=O)C3CC3(F)F)nc2[nH]1` (stereo not shown) [I-346] it is more than 10 nM.
The molecule `Cc1nn(C)c(C)c1-c1ccc(Nc2cc(Nc3cccc(C#N)n3)nc3[nH]c(C(F)F)nc23)c(S(C)(=O)=O)c1` [I-347] yielded a Kd of 0.1 to 0.5 nM.

What is called Kd is a measure of binding affinity in units of concentration. Lower therefore signals tighter binding.
